Numbers after ± are expanded uncertainties.
What was measured:
[1] = refractive index (Na D-line) (dimensionless); xn = mol fraction of the nth substance listed; conditions: 101.32 kPa, Liquid
[2] = xn = mol fraction of the nth substance listed; conditions: 101.32 kPa, Liquid

CO [methanol] + CCCCCl
x1 = 1
Conditions	mass density, 288.15 K [kg/m3]	mass density, 298.15 K [kg/m3]	mass density, 308.15 K [kg/m3]	refractive index, 288.15 K	refractive index, 298.15 K	refractive index, 308.15 K	viscosity, 288.15 K [mPa·s]	viscosity, 298.15 K [mPa·s]	viscosity, 308.15 K [mPa·s]
[1]	–	–	–	1.3303 ± 0.0006	1.3275 ± 0.0006	1.3254 ± 0.0006	–	–	–
[2]	796.1 ± 0.9	786.6 ± 0.9	777.2 ± 1	–	–	–	0.627 ± 0.01	0.543 ± 0.009	0.473 ± 0.009

CCCCCl [1-chlorobutane] + CCCO
Conditions	mass density, 288.15 K [kg/m3]	mass density, 298.15 K [kg/m3]	mass density, 308.15 K [kg/m3]	refractive index, 288.15 K	refractive index, 298.15 K	refractive index, 308.15 K	viscosity, 288.15 K [mPa·s]	viscosity, 298.15 K [mPa·s]	viscosity, 308.15 K [mPa·s]
[1], x2 = 0	–	–	–	1.4045 ± 0.0006	1.3993 ± 0.0006	1.3941 ± 0.0006	–	–	–
[1], x2 = 0.05	–	–	–	1.4036 ± 0.0006	1.3984 ± 0.0006	1.3931 ± 0.0006	–	–	–
[1], x2 = 0.1	–	–	–	1.4028 ± 0.0006	1.3976 ± 0.0006	1.3923 ± 0.0006	–	–	–
[1], x2 = 0.2	–	–	–	1.4013 ± 0.0006	1.3962 ± 0.0006	1.3909 ± 0.0006	–	–	–
[1], x2 = 0.3	–	–	–	1.3998 ± 0.0006	1.3948 ± 0.0006	1.3895 ± 0.0006	–	–	–
[1], x2 = 0.4	–	–	–	1.3984 ± 0.0006	1.3934 ± 0.0006	1.3882 ± 0.0006	–	–	–
[1], x2 = 0.5	–	–	–	1.3968 ± 0.0006	1.3919 ± 0.0006	1.3869 ± 0.0006	–	–	–
[1], x2 = 0.6	–	–	–	1.3952 ± 0.0006	1.3904 ± 0.0006	1.3855 ± 0.0006	–	–	–
[1], x2 = 0.7	–	–	–	1.3934 ± 0.0006	1.3888 ± 0.0006	1.384 ± 0.0006	–	–	–
[1], x2 = 0.8	–	–	–	1.3914 ± 0.0006	1.387 ± 0.0006	1.3824 ± 0.0006	–	–	–
[1], x2 = 0.9	–	–	–	1.3892 ± 0.0006	1.385 ± 0.0006	1.3807 ± 0.0006	–	–	–
[1], x2 = 0.95	–	–	–	1.3881 ± 0.0006	1.384 ± 0.0006	1.3798 ± 0.0006	–	–	–
[2], x2 = 0	892.2 ± 0.6	881 ± 0.7	869.7 ± 0.7	–	–	–	0.472 ± 0.009	0.423 ± 0.008	0.382 ± 0.008
[2], x2 = 0.05	888.3 ± 0.6	877.2 ± 0.7	866 ± 0.7	–	–	–	0.473 ± 0.009	0.426 ± 0.008	0.384 ± 0.008
[2], x2 = 0.1	884.9 ± 0.6	873.8 ± 0.7	862.6 ± 0.7	–	–	–	0.495 ± 0.009	0.44 ± 0.008	0.395 ± 0.008
[2], x2 = 0.2	878.2 ± 0.7	867.3 ± 0.7	856.2 ± 0.7	–	–	–	0.525 ± 0.009	0.461 ± 0.009	0.409 ± 0.008
[2], x2 = 0.3	871.2 ± 0.7	860.5 ± 0.7	849.7 ± 0.8	–	–	–	0.587 ± 0.01	0.511 ± 0.009	0.447 ± 0.008
[2], x2 = 0.4	864 ± 0.7	853.5 ± 0.7	842.9 ± 0.8	–	–	–	0.672 ± 0.01	0.576 ± 0.009	0.498 ± 0.009
[2], x2 = 0.5	856.3 ± 0.7	846.1 ± 0.8	835.8 ± 0.8	–	–	–	0.795 ± 0.011	0.67 ± 0.01	0.572 ± 0.009
[2], x2 = 0.6	848.1 ± 0.8	838.3 ± 0.8	828.3 ± 0.8	–	–	–	0.965 ± 0.013	0.802 ± 0.011	0.673 ± 0.01
[2], x2 = 0.7	839.2 ± 0.8	829.8 ± 0.8	820.3 ± 0.8	–	–	–	1.202 ± 0.015	0.977 ± 0.013	0.804 ± 0.011
[2], x2 = 0.8	829.6 ± 0.8	820.7 ± 0.8	811.5 ± 0.9	–	–	–	1.503 ± 0.018	1.206 ± 0.015	0.989 ± 0.013
[2], x2 = 0.9	819.2 ± 0.8	810.7 ± 0.9	802 ± 0.9	–	–	–	1.94 ± 0.023	1.531 ± 0.018	1.229 ± 0.015
[2], x2 = 0.95	813.5 ± 0.9	805.3 ± 0.9	796.9 ± 0.9	–	–	–	2.2 ± 0.026	1.729 ± 0.021	1.375 ± 0.017

CCCCCl [1-chlorobutane] + CCO
Conditions	mass density, 288.15 K [kg/m3]	mass density, 298.15 K [kg/m3]	mass density, 308.15 K [kg/m3]	refractive index, 288.15 K	refractive index, 298.15 K	refractive index, 308.15 K	viscosity, 288.15 K [mPa·s]	viscosity, 298.15 K [mPa·s]	viscosity, 308.15 K [mPa·s]
[1], x2 = 0	–	–	–	1.4045 ± 0.0006	1.3993 ± 0.0006	1.3941 ± 0.0006	–	–	–
[1], x2 = 0.05	–	–	–	1.403 ± 0.0006	1.3978 ± 0.0006	1.3925 ± 0.0006	–	–	–
[1], x2 = 0.1	–	–	–	1.4016 ± 0.0006	1.3964 ± 0.0006	1.3912 ± 0.0006	–	–	–
[1], x2 = 0.2	–	–	–	1.3988 ± 0.0006	1.3937 ± 0.0006	1.3885 ± 0.0006	–	–	–
[1], x2 = 0.3	–	–	–	1.3958 ± 0.0006	1.3907 ± 0.0006	1.3855 ± 0.0006	–	–	–
[1], x2 = 0.4	–	–	–	1.3925 ± 0.0006	1.3875 ± 0.0006	1.3823 ± 0.0006	–	–	–
[1], x2 = 0.5	–	–	–	1.389 ± 0.0006	1.384 ± 0.0006	1.3788 ± 0.0006	–	–	–
[1], x2 = 0.6	–	–	–	1.3851 ± 0.0006	1.3802 ± 0.0006	1.375 ± 0.0006	–	–	–
[1], x2 = 0.7	–	–	–	1.3807 ± 0.0006	1.3759 ± 0.0006	1.3708 ± 0.0006	–	–	–
[1], x2 = 0.8	–	–	–	1.3756 ± 0.0006	1.3711 ± 0.0006	1.3661 ± 0.0006	–	–	–
[1], x2 = 0.9	–	–	–	1.3697 ± 0.0006	1.3653 ± 0.0006	1.3609 ± 0.0006	–	–	–
[1], x2 = 0.95	–	–	–	1.3665 ± 0.0006	1.3624 ± 0.0006	1.3581 ± 0.0006	–	–	–
[2], x2 = 0	892.2 ± 0.6	881 ± 0.7	869.7 ± 0.7	–	–	–	0.472 ± 0.009	0.423 ± 0.008	0.382 ± 0.008
[2], x2 = 0.05	888.5 ± 0.6	877.3 ± 0.7	866 ± 0.7	–	–	–	0.475 ± 0.009	0.424 ± 0.008	0.384 ± 0.008
[2], x2 = 0.1	885.3 ± 0.6	874.2 ± 0.7	862.8 ± 0.7	–	–	–	0.479 ± 0.009	0.428 ± 0.008	0.388 ± 0.008
[2], x2 = 0.2	878.7 ± 0.7	867.7 ± 0.7	856.4 ± 0.7	–	–	–	0.5 ± 0.009	0.442 ± 0.008	0.395 ± 0.008
[2], x2 = 0.3	871.7 ± 0.7	860.8 ± 0.7	849.7 ± 0.8	–	–	–	0.529 ± 0.009	0.465 ± 0.009	0.41 ± 0.008
[2], x2 = 0.4	864.1 ± 0.7	853.4 ± 0.7	842.4 ± 0.8	–	–	–	0.566 ± 0.009	0.493 ± 0.009	0.43 ± 0.008
[2], x2 = 0.5	855.7 ± 0.7	845.2 ± 0.8	834.5 ± 0.8	–	–	–	0.63 ± 0.01	0.543 ± 0.009	0.469 ± 0.009
[2], x2 = 0.6	846.4 ± 0.8	836.1 ± 0.8	825.7 ± 0.8	–	–	–	0.708 ± 0.01	0.601 ± 0.01	0.515 ± 0.009
[2], x2 = 0.7	835.8 ± 0.8	825.9 ± 0.8	815.8 ± 0.9	–	–	–	0.807 ± 0.011	0.68 ± 0.01	0.581 ± 0.009
[2], x2 = 0.8	823.9 ± 0.8	814.4 ± 0.9	804.7 ± 0.9	–	–	–	0.932 ± 0.012	0.781 ± 0.011	0.67 ± 0.01
[2], x2 = 0.9	810 ± 0.9	800.9 ± 0.9	791.7 ± 0.9	–	–	–	1.099 ± 0.014	0.903 ± 0.012	0.765 ± 0.011
[2], x2 = 0.95	802.2 ± 0.9	793.4 ± 0.9	784.5 ± 0.9	–	–	–	1.209 ± 0.015	0.994 ± 0.013	0.839 ± 0.012

CCO [ethanol] + CCCCCl
x1 = 1
Conditions	mass density, 288.15 K [kg/m3]	mass density, 298.15 K [kg/m3]	mass density, 308.15 K [kg/m3]	refractive index, 288.15 K	refractive index, 298.15 K	refractive index, 308.15 K	viscosity, 288.15 K [mPa·s]	viscosity, 298.15 K [mPa·s]	viscosity, 308.15 K [mPa·s]
[1]	–	–	–	1.363 ± 0.0006	1.3591 ± 0.0006	1.355 ± 0.0006	–	–	–
[2]	793.8 ± 0.9	785.2 ± 0.9	776.6 ± 1	–	–	–	1.317 ± 0.016	1.085 ± 0.014	0.902 ± 0.012
